The conditions of series [1]: Crystal; DTA.
Series [2] in a line: Molar enthalpy of transition or fusion. The following applies: Crystal; DSC.

± gives the expanded uncertainty stated by the source.

`Cc1ccc(C(c2ccc(C)cc2)(C(F)(F)F)C(F)(F)F)cc1` [2,2-bis(p-tolyl)hexafluoropropane]: the Normal melting temperature in series [1] was 84.10 ± 0.5 °C. Moreover, the “Molar enthalpy of transition or fusion” value in series [2] worked out at 5.33 ± 0.167 kcal/mol.

As for `Cc1ccc(C(C)(C)c2ccc(C)cc2)cc1` [2,2-bis(p-tolyl)propane], the Normal melting temperature in series [1] was 78.60 ± 0.5 °C. In series [2], the “Molar enthalpy of transition or fusion” value was 5.07 ± 0.143 kcal/mol.
